# Test results as given in patent publication US8889878B2, “Haloalky-substituted amides as insecticides and acaricides” (Bayer CropScience AG, priority 2009, dated 2014).
# Key:
# [1] = logP by HPLC on reverse-phase column (EEC Directive 79/831 Annex V.A8); assay type: physicochemical; settings: HPLC-MS
# Description: The logP values reported in the above Tables and Preparation Examples were determined according to EEC Directive 79/831 Annex V.A8 by HPLC (High Performance Liquid Chromatography) on a reverse-phase column (C18). Temperature 43° C.
# [2] = system: Musca domestica adults; assay: Musca domestica test (MUSCDO), Example 14; assay type: in vivo; settings: application rate 100 ppm, treated sponge, after 2 days
# In short: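 Compound dissolved in DMSO and diluted in water to the test concentration, then applied to a sponge in vessels holding adult flies. Percent kill scored after 2 days (100% = all flies dead).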
# [3] = system: Musca domestica adults; assay: Musca domestica test (MUSCDO), Example 4; assay type: in vivo; settings: application rate 20 ppm, treated sponge, after 2 days
# Description: (§1) Musca domestica Test (MUSCDO) • Solvent: dimethyl sulphoxide To prepare an active ingredient formulation, 10 mg of active ingredient are mixed with 0.5 ml of dimethyl sulphoxide, and the concentrate is diluted with water to the desired concentration. Vessels containing a sponge which has been treated with the active ingredient formulation of the desired concentration are populated with Musca domestica adults. After 2 days, the kill rate in % is determined. 100% means that all flies were killed; 0% means that no flies were killed.
# [4] = system: Lucilia cuprina larvae; assay: Lucilia cuprina test (LUCICU), Example 3; assay type: in vivo; settings: application rate 20 ppm, treated horsemeat, after 2 days
# Description: as §1, with “Lucilia cuprina” for “Musca domestica”, “(LUCICU)” for “(MUSCDO)”, “horsemeat” for “a sponge”, “Lucilia cuprina larvae.” for “Musca domestica adults.”, “larvae” for “flies”
# [5] = system: Ctenocephalides felis; assay: Ctenocephalides felis oral (CTECFE), Example 2; assay type: in vivo; settings: application rate 20 ppm in citrated cow's blood, after 2 days
# In short: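 Compound in DMSO diluted into citrated cow's blood, offered to 20 unfed adult C. felis through a Parafilm membrane. Kill rate (%) scored after 2 days; 100% means all fleas dead.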
# [6] = system: Boophilus microplus; assay: Boophilus microplus test (BOOPMI injection), Example 1; assay type: in vivo; settings: application rate 20 μg/animal, injected into abdomen, after 7 days
# In short: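 Compound in DMSO, diluted with water, injected into the abdomen of engorged ticks, which were then held in a climate-controlled room. Efficacy was scored after 7 days from fertile egg laying, with 100% meaning no tick laid fertile eggs.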
# [7] = system: Boophilus microplus; assay: Boophilus microplus test (BOOPMI injection), Example 11; assay type: in vivo; settings: application rate 20 μg/animal, injected into abdomen, after 7 days
# In short: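 Adult ticks injected in the abdomen with compound diluted in DMSO, then held in a climate-controlled room. Efficacy in % determined after 7 days from fertile eggs laid; 100% means no tick laid fertile eggs.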
structure (smiles),measurement,setting,value
CC(NC(=O)c1ccc(/C=C/C(=O)NC(c2cccc(C(F)(F)F)c2)C(F)(F)F)cc1C(F)(F)F)C(F)(F)F (stereo not shown) [Ia-30],logP,[1],HPLC-MS: logP = 3.58; mass
same,kill rate in % (efficacy),[2],100%
same,kill rate in % (efficacy),[3],85%
same,kill rate in % (efficacy),[4],100%
same,kill rate in % (efficacy),[5],100%
same,efficacy in % (fertile eggs laid),[6],100%
same,efficacy in % (fertile eggs laid),[7],100%
